From patent US10076116B2, “N-cycloalkyl-N-(biheterocyclymethylene)-(thio)carboxamide derivatives” (BAYER CROPSCIENCE AKTIENGESELLSCHAFT, priority 2013, dated 2018)

Columns and labels:
Alternaria brassicae = experiment: In vivo preventive test on Alternaria brassicae (leaf spot on radish); details: for Efficacy (Table A2) / Efficacy (Table A1): dose 500 ppm, radish, 6 days after inoculation
Procedure: Example A: In Vivo Preventive Test on Alternaria brassicae (Leaf Spot on Radish) Solvent: 5% by volume of Dimethyl sulfoxide • 10% by volume of Acetone Emulsifier: 1 μL of TWEEN® 80 (Polyoxyethylene (20) sorbitan monooleate) per mg of active ingredient The active ingredients are made soluble and homogenized in a mixture of Dimethyl sulfoxide/Acetone/TWEEN® 80 and then diluted in water to the desired concentration. The young plants of radish are treated by spraying the active ingredient prepared as described above. Control plants are treated only with an aqueous solution of Acetone/Dimethyl sulfoxide/TWEEN® 80. After 24 hours, the plants are contaminated by spraying the leaves with an aqueous suspension of Alternaria brassicae spores. The contaminated radish plants are incubated for 6 days at 20° C. and at 100% relative humidity. The test is evaluated 6 days after the inoculation. 0% means an efficacy which corresponds to that of the control plants while an efficacy of 100% means that no disease is observed.

Pyrenophora teres = experiment: In vivo preventive test on Pyrenophora teres (net blotch on barley); details: for efficacy: 500 ppm of active ingredient, barley plants, evaluated 14 days after inoculation; for Efficacy (Table D1): dose 500 ppm, barley
Procedure: Example D: In Vivo Preventive Test on Pvrenophora Teres (Net Blotch on Barley) Solvent: 5% by volume of Dimethyl sulfoxide • 10% by volume of Acetone Emulsifier: 1 μL of TWEEN® 80 per mg of active ingredient The active ingredients are made soluble and homogenized in a mixture of Dimethyl sulfoxide/Acetone/TWEEN® 80 and then diluted in water to the desired concentration. The young plants of barley are treated by spraying the active ingredient prepared as described above. Control plants are treated only with an aqueous solution of Acetone/Dimethyl sulfoxide/TWEEN® 80. After 24 hours, the plants are contaminated by spraying the leaves with an aqueous suspension of Pyrenophora teres spores. The contaminated barley plants are incubated for 48 hours at 20° C. and at 100% relative humidity and then for 12 days at 20° C. and at 70-80% relative humidity. The test is evaluated 14 days after the inoculation. 0% means an efficacy which corresponds to that of the control plants while an efficacy of 100% means that no disease is observed.

[1] = log P by HPLC on reversed-phase column (C 18), EEC Directive 79/831 Annex V.A8; assay type: physicochemical; details: HPLC C 18, 40° C., 0.1% aqueous formic acid and acetonitrile, gradient 10% to 90% acetonitrile
Procedure: In table 1, the log P values were determined in accordance with EEC Directive 79/831 Annex V.A8 by HPLC (High Performance Liquid Chromatography) on a reversed-phase column (C 18), using the method described below: Temperature: 40° C.; Mobile phases: 0.1% aqueous formic acid and acetonitrile; linear gradient from 10% acetonitrile to 90% acetonitrile. Calibration was carried out using unbranched alkan-2-ones (comprising 3 to 16 carbon atoms) with known log P values (determination of the log P values by the retention times using linear interpolation between two successive alkanones). lambda-max-values were determined using UV-spectra from 200 nm to 400 nm and the peak values of the chromatographic signals.

| logP [1] | Compound | Efficacy (Table A2) (Alternaria brassicae) [%] | efficacy (Pyrenophora teres) | Efficacy (Table D1) (Pyrenophora teres) [%] | Efficacy (Table A1) (Alternaria brassicae) [%] | further results |
| --- | --- | --- | --- | --- | --- | --- |
|  | Cn1nc(C(F)F)c(C(=O)N(Cc2sc3ccccc3c2-c2cccnc2)C2CC2)c1F [CMP4, N-cyclopropyl-3-(difluoromethyl)-5-fluoro-1-methyl-N-{[3-(pyridin-3-yl)-1-benzothiophen-2-yl]methyl}-1H-pyrazole-4-carboxamide, reference compound] | 43 |  |  |  |  |
|  | COc1cccc(-c2c(CN(C(=O)c3c(C(F)F)nn(C)c3F)C3CC3)sc3ccccc23)n1 [CMP5, N-cyclopropyl-3-(difluoromethyl)-5-fluoro-N-{[3-(6-methoxypyridin-2-yl)-1-benzothiophen-2-yl]methyl}-1-methyl-1H-pyrazole-4-carboxamide] | 0 | no protection | 0 |  |  |
|  | Cn1nc(C(F)F)c(C(=O)N(Cc2sc3ccccc3c2-c2ccncc2)C2CC2)c1F [CMP6, N-cyclopropyl-3-(difluoromethyl)-5-fluoro-1-methyl-N-{[3-(pyridin-4-yl)-1-benzothiophen-2-yl]methyl}-1H-pyrazole-4-carboxamide] |  | no protection | 0 |  |  |
| 4.16 | Cn1nc(C(F)F)c(C(=O)N(Cc2nn(-c3ccccc3)cc2-c2ccc3c(ccn3C)c2)C2CC2)c1F [I.01] |  |  |  | 71 |  |
| 4.53 | Cn1nc(C(F)F)c(C(=O)N(Cc2nn(-c3ccccc3)cc2-c2csc3ccccc23)C2CC2)c1F [I.03] |  |  |  | 93 |  |
|  | Cn1nc(C(F)F)c(C(=O)N(Cc2sc3ccccc3c2-c2coc3ccccc23)C2CC2)c1F [I.53, N-{[3-(1-benzofuran-3-yl)-1-benzothiophen-2-yl]methyl}-N-cyclopropyl-3-(difluoromethyl)-5-fluoro-1-methyl-1H-pyrazole-4-carboxamide] | 100 |  | 83 |  | efficacy (Alternaria brassicae; 500 ppm of active ingredient, radish plants sprayed 24 hours before inoculation, evaluated 6 days after inoculation, listed as 1.53): total protection; chromatographic logP ([1]; reversed-phase HPLC column (C 18)): 4.61 |
